{"source": "paper PMC8834506", "about": "“Optimization of Thymidine Kinase-Based Safety Switch for Neural Cell Therapy” (Cells, 2022)", "key": {"[1]": {"system": "non-transduced hESC colonies", "assay": "Morphology and size of hESC colonies upon nucleoside treatment", "format": "cell-based, human", "description": "We next investigated the impact of ACV, PCV, and GCV on non-transduced hESC and neuroprogenitors (proliferating ReNcells). […] To further understand the impact of nucleoside analogs on non-transduced cells, we performed γ-H2A.X immunostaining (Figure 6B). There was a graded response, virtually identical in hESC and in neuroprogenitors. […] In addition, we investigated the morphology and size of non-transduced hESC colonies upon nucleoside treatment. […] Taken together, our findings confirm considerable toxicity of GCV, even in the absence of viral TK. Note that this was not the case for PCV despite the fact that it is a potent inducer of cell death in thymidine kinase-expressing cells.\nCells were exposed to 100 µM of the respective nucleoside for 48 h. DNA damage was monitored using γ-H2A.X marker in yellow and nuclei were counterstained with Hoechst. The white box in the first column indicates the area of the zoom for the hESC colonies."}, "[2]": {"system": "Ki67-SR39h-expressing hESC transplanted into the striatum", "assay": "In vivo prevention of tumor formation after striatal transplantation", "parameters": "species or system NOD/SCID mice", "settings": "40 mg/kg/day i.p., 47 days post-transplantation", "method": "Given the encouraging in vitro results, we next investigated whether this newly developed safety switch system (SR39h and different nucleoside analogs) could prevent tumor formation in vivo. For this purpose, 20,000 undifferentiated Ki67-SR39h-expressing hESC were transplanted into the striatum of NOD/SCID mice. […] A group of control mice received only a NaCl solution. […] Human cytoplasmic marker (HCM) staining confirmed the human (i.e., hESC-derived) origin of these tumors. Tumors cells were predominantly Ki67 positive with a rosette organization as frequently found in tumors of the central nervous system.\nFigure 7 in vivo validation of suicide gene and inducers. (A) Schematic diagram of the experimental setup to detect tumor elimination in vivo. NOD/SCID mice were transplanted with 20,000 SR39h-expressing hESC through stereotactic injection into the striatum. 48 h post transplantation, mice were intraperitoneally injected with the respective nucleoside (40 mg/kg) for five consecutive days a week during a two-week period. Control mice were treated with a NaCl solution. Mice were sacrificed 47 days post transplantation. (B) Cresyl violet staining of a brain section. […] (C) Immunostaining of brain coronal section (sections from ACV-, PCV-, and GCV-treated mice are shown in the upper, middle, and lower row, respectively). Staining with the proliferation marker Ki67 and with the human cytoplasmic marker (HCM) are shown in red and green, respectively. Nuclei were counterstained with DAPI (blue). White arrows show residual proliferative cells form the graft. A merge of the three staining is shown in the right column. Each experimental group consisted of five mice.\nSingle cell transplant: Undifferentiated HS420 (expressing TK variants) were detached by TrypLE and concentrated at 20,000 cells/μL in Stemflex. 20,000 cells (1 μL) were injected into the right striatum using a 26-G Hamilton syringe (Hamilton, BGB Analytik AG, Boeckten, Switzerland). Injection coordinates for striatum were: bregma = 0.6 mm, mediolateral = 2 mm, dorsoventral = 3 mm.\nThirty days after termination of treatment with the respective antiviral nucleoside analogs or control (NaCl), mice were sacrificed by intracardiac perfusion of paraformaldehyde 4% in PBS. Brains were removed from the skull and post-fixed in the same fixative overnight.\nParaffin embedded brains were sectioned (coronal sections 7 µm thick) and processed for hematoxylin and eosin or cresyl violet staining stain aiming morphological assessment of the graft. Sections were mounted in Eukitt (Kindler GmbH, Germany) and observed under microscope (see below)\nThe primary antibody diluted in PBS with 0.3% Triton was incubated at 4 °C overnight in agitation. […]"}}, "note": "“Also recorded” adds a separate entry of the source.", "data": [{"smiles": "Nc1nc(O)c2ncn(COC(CO)CO)c2n1", "note": "[GCV, ganciclovir]", "values": [{"measurement": "Effect on morphology and size of colonies", "setting": "[1]", "result": "smaller colonies"}, {"measurement": "Tumor formation", "setting": "[2]; five consecutive days a week for two weeks, from 2 days after transplantation, five mice per group", "result": "prevented tumor formation; also recorded: no major tumors; also recorded: impressive anti-tumor activities"}, {"measurement": "Mice with a small nuclei-rich region at the graft site", "setting": "[2]; cresyl violet staining", "result": "did not observe any structures resembling tumors"}]}]}
